Consider 1 compound from patent US6506781B1, “Oxazole PPAR antagonist” (SmithKline Beecham Corporation, priority 1999, dated 2003).

SMILES strings stand for the structures.

The assay concerns male ZDF/GMI fa/fa rats. In words: Experimental animal protocol: blood glucose, triglycerides and NEFAs in ZDF rats. In kind it is in vivo. The following applies: 150 mg/kg twice a day oral gavage, after 2 weeks, non-fasting, mean ± SEM. As for the experimental part:
Experimental Animal Protocol
Age and weight matched male ZDF/GMI fa/fa rats (Genetic Models) were housed at 72 degF. and 50% relative humidity with a 12 hr light and dark cycle. Starting at 8 weeks of age the animals were dosed twice a day by oral gavage with 150 mg/kg of example 2. After 2 weeks the animals were anesthetized with isofluorane, blood drawn by cardiac puncture, and non-fasting measurements of glucose, triglycerides, and non-esterified free fatty acids (NEFAS) were obtained. The data were calculated as the mean and standard error (SEM) from experiments performed on ten animals per treatment group. Two-tailed tests were performed to calculate P values using Excel on a personal computer. This research complied with the principles of laboratory animal care (NIH publication No. […], revised 1985) and company policy on the care and use of animals and related codes of practice.

As to `CCCc1nnc(C[C@H](Nc2ccccc2C(=O)c2ccccc2)c2ccc(OCCc3nc(-c4ccccc4)oc3C)cc2)o1` [Example 1, (S)-{{2-[1-(2-Benzoylphenyl)amino]-2-{4-[2-(5-methyl-2-phenyloxazol-4-yl)ethoxy]phenyl}ethyl}}-5-propyl-1,3,4-oxadiazole], the “Free Fatty Acids” value (control 1.48 ± 0.09) was found to be 1.14 ± 0.06 mEq/L. Besides, the Glucose (control 313 ± 62) turned out to be 201 ± 13 mg/dL. The same compound gave a Triglycerides (control 1507 ± 143) of 734 ± 102 mg/dL.
